# Experimental data reported in US12521415B2, “Accelerating repair of mucosal injury using gold(III) compounds” (University of Kentucky Research Foundation, priority 2020, dated 2026).
# Tested on: DSS colitis mice
# Experiment: DSS-induced colitis in mice treated with AuPhos
# Format: in vivo, mouse
# Conditions: for colonic ulceration (tissue histology): left colon
# Method: FIG. 9A includes results for changes with 2% DSS given for 7 days followed by water. AuPhos was started (25 mg/kg q 3D) on DAY1. Body Wt changes shown as means of each group (n=6) with SEM for 9 and 13 day trials. FIG. 9B includes results for changes with 2% DSS given for 7 days followed by water. AuPhos was started (25 mg/kg q 3D) on DAY1. Body Wt changes shown as means of each group (n=6) with SEM for 9 and 13 day trials as shown, with corresponding DAI. FIG. 9C includes results for changes with 2% DSS given for 7 days followed by water. AuPhos was started (25 mg/kg q 3D) on DAY1. Histological score in DSS-colitis mice 7 and 13 days after DSS initation. Statistical significance was determined using 2-way ANOVA with Sidak's multiple comparison test (A,B) or unpaired t-test (C). FIG. 9D includes images showing results for changes with 2% DSS given for 7 days followed by water. AuPhos was started (25 mg/kg q 3D) on DAY1. Representative images of H&E staining of whole tissue scan from 13-day study. ★★<0.01, ★★★<0.0001.
# FIG. 12A RT-qPCR analysis of cytokines and chemokine genes in AuPhos vs. controls at 9 and 13 days after DSS initiation. FIG. 12B RT-qPCR analysis of cytokines and chemokine genes in AuPhos vs. controls at 9 and 13 days after DSS initiation. FIG. 12C Quantitative RT-PCR analysis of inflammasome markers in D13 DSS mice. Statistical significance was determined using multiple t-test with Holm-Sidak's multiple method. FIG. 12D Serum IL-6 in AuPhos treated (n=4) and control mice, with or without anti-CD3 antibody. ★<0.05; ★★<0.01.
# FIGS. 17A-17F illustrate that AuPhos improves DSS-induced colitis. Results shown are for changes with 2% DSS given for 7 days followed by water. AuPhos was started (25 mg/kg q3D) on DAY1. FIG. 17A. Body Wt changes shown as means of each group (n=6) with SEM for 15 day trial as shown, with FIG. 17B. corresponding DAI. FIG. 17C. Histological score in DSS-colitis mice after Day−7, −11, −13, and −15 of DSS initiation. Statistical significance was determined using 2-way ANOVA with Sidak's multiple comparison test (A,B) or unpaired t-test (C) FIG. 17D. Representative images of H&E staining of whole tissue scan from 13-day study. E. Effect of AuPhos on intestinal permeability using FITC-dextran in DSS-colitis mice (n=5) in a separate D7, D9, D11, D13 and D15 experiment. F. RT-qPCR analysis of cytokines and chemokines genes in AuPhos vs. vehicle treated DSS colitis mice from 9-day, 13-day and 15-day studies. ß<0.05, ßß<0.01, ßßß<0.0001.
# Given the potential that AuPhos provides a novel approach to IBD therapy, DSS colitis mice were given (2% DSS×7D) 25 mg/kg i.g. AuPhos every 3 days (from the start of DSS) until sacrifice.
# Findings in FIG. 9A-9D indicate that AuPhos attenuates tissue inflammation and enhances mucosal healing in DSS colitis mice. To interrogate the effects of AuPhos on Th1 and Treg cytokine production as well as chemokine and inflammasome mediators, mRNA from mice at time points indicated (as in FIG. 9A-9D). […] To test the question of whether AuPhos affected leukocytes directly, control and AuPhos-treated (25 mg/kg i.g. dosed every 3d×2) were injected with anti-CD3 mAb (antiTCR mAb). It is known that CD3 mAb induces a cytokine storm in the periphery and intestine.
# The efficacy of AuPhos in the treatment of colitis. Given the potential that AuPhos provides a novel approach to IBD therapy, DSS colitis mice (2% DSS×7D) were given intragastric (i.g.) AuPhos (25 mg/kg) every 3 days (from the start of DSS) until sacrifice.
# [1] = 2% DSS x7D, 25 mg/kg i.g. every 3 days, 9 and 13 day trials
# [2] = 2% DSS x7D, 25 mg/kg i.g. every 3 days, 15 day trial
# [3] = DSS colitis mice, 9 and 13 days after DSS initiation, RT-qPCR
smiles,measurement,setting,value
[Cl][Au]1([c]2ccccc2Cc2ccccn2)[P](c2ccccc2)(c2ccccc2)c2ccccc2[P]1(c1ccccc1)c1ccccc1 [AuPhos],DAI,[1],significantly reduces
same,weight (Wt) loss,[1],significantly reduces
same,colonic ulceration (tissue histology),"2% DSS x7D, 25 mg/kg i.g. every 3 days, 13-day study",resolution of colonic ulceration throughout the left colon
same,disease activity index (DAI),[2],significantly reduces
same,weight (Wt) loss,[2],significantly reduces
same,tissue histologic indices (colitis score),"2% DSS x7D, 25 mg/kg i.g. every 3 days, at 13D",significant decreases
same,tissue histology indices (colitis score),"2% DSS x7D, 25 mg/kg i.g. every 3 days, at D11, 13 and 15",significant decreases
same,colonic ulceration (tissue histology),15 day trial series,resolution of colonic ulceration throughout the left colon
same,markers of inflammasome signaling mRNA,"D13 DSS mice, RT-PCR",reduces
same,pro-inflammatory cytokine mRNA and chemokine-mediators of colitis (mucosal mRNA),"DSS colitis mice, 9-day, 13-day and 15-day studies, RT-qPCR",reduces
same,"chemokine-mediators of colitis mRNA (MCP-1, I-TAC and IP-10)",[3],reduces
same,"pro-inflammatory cytokine mRNA (IFNγ, TNF, IL-6 and IL-10)",[3],reduces
same,acute colitis,DSS mice,attenuates acute colitis
